# “Also recorded” adds a separate entry of the source.
# Columns and labels:
# writhing response = test: animal or person; assay type: in vivo, mouse; conditions: for ED50: Mus musculus, Table 7, read-out: ED50, Acetic Acid Induced Writhing in the Mouse
# mu-type opioid receptor = target: T1, mu-type opioid receptor (Rattus norvegicus, UniProt P33535); test: inhibition of specific [^3 H] DAGO binding to rat forebrain membranes; conditions: (Ki) nM, μ receptor (Rat Forebrain), Table 6; [^3 H] DAGO, mean of three experiments
# T1 construct: using rat forebrain membranes; from tissue; host or cells: rat forebrain membranes
# T1 sequence (P33535 whole entry): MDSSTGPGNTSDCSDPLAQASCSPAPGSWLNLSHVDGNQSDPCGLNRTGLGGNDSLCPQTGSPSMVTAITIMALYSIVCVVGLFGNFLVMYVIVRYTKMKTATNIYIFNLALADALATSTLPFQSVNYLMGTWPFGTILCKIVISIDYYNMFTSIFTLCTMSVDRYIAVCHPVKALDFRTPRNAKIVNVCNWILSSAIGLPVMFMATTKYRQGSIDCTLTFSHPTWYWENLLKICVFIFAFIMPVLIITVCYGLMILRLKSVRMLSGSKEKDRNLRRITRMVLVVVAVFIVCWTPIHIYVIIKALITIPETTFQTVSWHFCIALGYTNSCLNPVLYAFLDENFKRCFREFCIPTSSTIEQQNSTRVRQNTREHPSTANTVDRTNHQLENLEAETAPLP
# Protocol: (§1) The interaction of some of the novel compounds with mu and delta-type opioid receptors present in brain membranes was examined in vitro. […] DAGO (mu-type receptor) or [^3 H] DADLE (delta-type receptor) was determined using rat forebrain membranes. Computer assisted analysis (EBDA) was used to determine apparent Ki values for the various compounds.
# (§2) Values represent the MEAN±S.E.M. of the Ki(nM) for each compound to inhibit specific binding of the indicated ligand to rat brain membranes. The values are from two-five separate experiments and were calculated according to the method of Cheng and Prusoff [Biochem. Pharmacol. 1973, 22, 3099-3108] together with the EBDA Program. Numbers in parentheses are the mean Hill coefficients for each compound to inhibit ligand binding.
# as §2, with “two.div.seven” for “two-five”, “Prusoff” for “Prusoff [Biochem. Pharmacol. 1973, 22, 3099-3108]”, “program.” for “Program.”, “binding. N.D.=not determined” for “binding.”
# (§3) The interaction of some of the novel compounds with mu, delta and kappa - type opioid receptors present in brain membranes was examined in vitro. […] DAGO (mu-type receptor), or [^3 H] DADLE (Delta-type receptor) using rat forebrain membranes and [^3 H] EKC (kappa-type receptor) using guiniea pig cerebellum membrane was determined. Computer assisted analysis (EBDA) was used to determine apparent Ki values for the various compounds.
# (§4) The values represent the MEAN±S.E.M. of the Ki(nM) for each compound to inhibit specific binding of the indicated ligand. Each value represents the mean of three individual experiments performed on separate occasions.
# tail flick response = test: radiant heat tail flick analgesia in rats; assay type: in vivo, rat
# Protocol: The analgesic properties of the compounds prepared in accordance with Examples III and IV were evaluated in rats using the radiant heat and tail flick paradigm. […] Flick latencies in FIGS. 11-13 were determined at 30 minute intervals through 3.5 h and the data was expressed as a percentage of the maximum possible effect (% MPE). A 15 sec. cut-off latency was used to minimize tissue damage. The values shown are the mean values for 6 rats.
# A 15 sec. cut-off latency was used to prevent tissue damage.
# The analgesic properties of compounds XXII and XXIII were evaluated in rats using the writhing assay and tail flick paradigm. […] The writhing assay which uses a chemical stimulus to produce pain, is believed to be more sensitive to kappa agonist activity than other measures of analgesia which uses a heat stimulus (Dykstra, L.A. Behavioral Pharmacology: The Current Status, N.Y.: Allan R. Liss. Inc. 1985).
# [1] = target: T2, kappa-type opioid receptor (Cavia porcellus, UniProt P41144); test: inhibition of specific [^3 H] EKC binding to guinea pig cerebellum membrane
# T2 construct: using guiniea pig cerebellum membrane; from tissue; host or cells: guinea pig cerebellum membranes
# T2 sequence (P41144 whole entry): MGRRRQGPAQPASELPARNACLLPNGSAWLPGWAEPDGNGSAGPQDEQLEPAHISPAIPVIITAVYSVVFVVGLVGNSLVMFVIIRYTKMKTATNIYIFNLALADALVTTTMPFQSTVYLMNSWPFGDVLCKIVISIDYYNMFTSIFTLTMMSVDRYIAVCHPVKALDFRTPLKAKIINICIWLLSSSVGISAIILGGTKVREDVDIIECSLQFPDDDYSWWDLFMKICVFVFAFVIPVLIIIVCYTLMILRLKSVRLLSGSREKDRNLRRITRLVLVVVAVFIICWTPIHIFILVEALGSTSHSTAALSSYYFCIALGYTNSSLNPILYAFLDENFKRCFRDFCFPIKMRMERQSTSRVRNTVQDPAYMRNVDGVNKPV
# Protocol: as §3, §4
# [2] = target: delta-type opioid receptor (Rattus norvegicus, UniProt P33533); test: inhibition of specific [^3 H] DADLE binding to rat forebrain membranes; conditions: read-out: (Ki) nM, δ receptor (Rat Forebrain); Table 6; [^3 H] DADLE, mean of three experiments
# Sequence of delta-type opioid receptor (P33533 whole entry): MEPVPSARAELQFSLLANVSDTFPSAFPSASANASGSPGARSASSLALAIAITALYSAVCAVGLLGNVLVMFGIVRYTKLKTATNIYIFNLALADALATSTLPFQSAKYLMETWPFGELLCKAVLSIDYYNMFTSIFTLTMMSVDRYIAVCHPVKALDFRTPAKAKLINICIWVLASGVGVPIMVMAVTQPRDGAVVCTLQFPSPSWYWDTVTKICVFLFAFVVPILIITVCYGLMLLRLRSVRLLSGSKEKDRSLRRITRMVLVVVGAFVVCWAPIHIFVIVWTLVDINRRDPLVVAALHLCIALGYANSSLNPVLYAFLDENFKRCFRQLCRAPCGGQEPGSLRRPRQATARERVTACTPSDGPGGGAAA
# Protocol: as §1, §2
# as §2, with “two.div.seven” for “two-five”, “Prusoff” for “Prusoff [Biochem. Pharmacol. 1973, 22, 3099-3108]”, “program.” for “Program.”, “binding. N.D.=not determined” for “binding.”
# as §3, §4
# [3] = test system: oxymorphonazine (OMZ)-induced analgesia; test: antagonism of oxymorphonazine (OMZ)-induced analgesia (tail flick) in rats; assay type: in vivo, rat; conditions: for ED50 / ED100: Rattus norvegicus, sc, Table 8; for ED50 / ED100 / Percent Antagonism at 1 Hr / Percent Antagonism at 1.5 Hr / Percent Antagonism at 2 Hr / Percent Antagonism at 3 Hr / Percent Antagonism at 4 Hr / Percent Antagonism at 6 Hr / Percent Antagonism at 8 Hr: S.C.; for ED50: read-out: ED 50, oxymorphonazine antagonism; for ED100: read-out: ED 100, oxymorphonazine antagonism; for Percent Antagonism at 1 Hr / Percent Antagonism at 1.5 Hr / Percent Antagonism at 2 Hr / Percent Antagonism at 3 Hr / Percent Antagonism at 4 Hr / Percent Antagonism at 6 Hr / Percent Antagonism at 8 Hr: dose tested (mg/kg): Naltrexone 0.5, Nalmefene 1.0, XI 10.0, XII 2.5, XIII 0.5, XIV 5.0
# Protocol: The compound of Example XII was evaluated for its potency and duration in the antagonism of oxymorphonazine (OMZ)-induced analgesia. […] Data represent the mean SEM of 4-5 animals per group.
# (Cowan A. Trendsin Pharmacology Science, 7:69-72, 1986) With this test the intracerebroventricular administration of bombesin produces a characteristic scratching response.
# [4] = food intake in 24 hr food-deprived rats; assay type: in vivo, rat; conditions: for Food Intake in Grams: Table 3, 24 hr; for Cumulative Food Intake in Grams: Table 4
# Protocol: (§5) Rats were given water and powdered food ad lib for 8 days until food intake had stabilized, and body weight and food and water intakes were recorded at the same time every day. Animals were assigned to treatment groups matched on the basis of their 24 hr food consumption on the last baseline day, and rats were food deprived for 24 hr immediately before injection of the test compound. […] The compound of Example XII was injected S.C. at doses of 1.15, 2.31, 11.55 and 23.09 μmol/kg, in a volume of 4 ml/kg of 0.3% acetic acid. Controls were injected with the vehicle solutions in the appropriate volumes. Food and water intakes were measured at 1, 3 and 24 hr after treatment. Data for each measure and time point were analyzed by one-way analysis of variance (ANOVA), and post-hoc comparisons were performed using Dunnett's test in order to compare the control mean to each of the treatment means.
# (§6) Rats were given water and powdered food for 8 days, and following this,
# (§7) Testing was performed as described above, and baseline measurements were recorded for 7 days. […] The compound of Example XII was injected at doses of 11.55, 23.09, 46.19 and 92.38 μmol/kg by suspension in a solution of 1:1 DMSO:water in a volume of 3 ml/kg. Food and water intakes were recorded at 1, 2, 4 and 6 h following treatment.
# See Table 3 for experimental details, except that baseline measures were […]
# [5] = water intake in 24 hr food-deprived rats; assay type: in vivo, rat; conditions: for effect on water intake: S.C.; for Water Intake: Table 3, 24 hr; for Cumulative Water Intake: Table 5
# Protocol: as §5, §6, §7
# See Table 3 for experimental details, except that baseline measurements
compound,measurement,setting,value
"Oc1ccc2c3c1O[C@H]1C(=NOCCc4ccccc4)CC[C@@]4(O)[C@@H](C2)N(CC2CC2)CC[C@]314 [Example XXII, 6-[2-phenethyl]oximino-17-cyclopropylmethyl-4,5 α-epoxy-3,14-dihydroxymorphinan]",ED50,writhing response,0.01 mg/kg
same,potency versus morphine to antagonize writhing response,"writhing response; mouse, in vivo, ip",more potent than morphine to antagonize the writhing response
same,kappa selectivity and agonist activity,writhing response; writhing and tail flick,selective to kappa receptors and possess kappa agonist activity
same,Ki,mu-type opioid receptor,0.88 nM
same,ED50,"tail flick response; Rattus norvegicus, Table 7, read-out: ED50, Antagonism of the Tail-Flick Response in the Rat",4.02 mg/kg
same,antagonism of tail-flick response to heat,tail flick response; rat,effectively antagonized the tail-flick response to a heat stimulus in the rat
same,Ki,[1],0.28 nM
same,fold more potent to inhibit specific [3H]EKC,[1]; than other compounds or naltrexone,3 fold
same,Ki,[2],0.6 nM
"C=C1CC[C@@]2(O)[C@H]3Cc4ccc(O)c5c4[C@@]2(CCN3CC2CC2)[C@H]1O5 [Nalmefene, reference compound]",ED50,writhing response,> 30 mg/kg
same,Ki,mu-type opioid receptor,0.64 nM
same,Ki,[1],0.89 nM
same,Ki,[2],0.87 nM
same,ED50,[3],0.12 mg/kg
same,ED100,[3],1.35 mg/kg
same,Percent Antagonism at 1 Hr,[3],85%
same,Percent Antagonism at 1.5 Hr,[3],92%
same,Percent Antagonism at 2 Hr,[3],83%
same,Percent Antagonism at 3 Hr,[3],73%
same,Percent Antagonism at 4 Hr,[3],46%
same,Percent Antagonism at 6 Hr,[3],0%
same,Percent Antagonism at 8 Hr,[3],37%
"O=C1CC[C@@]2(O)[C@H]3Cc4ccc(O)c5c4[C@@]2(CCN3CC2CC2)[C@H]1O5 [Naltrexone, naltrexone]",ED50,writhing response,> 30 mg/kg
same,"time course of antagonism of OMZ-induced analgesia, PO","[3]; PO, naltrexone 26.53 μmol/kg","a trend for progressive loss of the antagonistic effect over 0.5-4.0 hours, although the reversal was not complete by eight hours"
same,ED50,[3],0.07 mg/kg
same,ED100,[3],0.62 mg/kg
same,Percent Antagonism at 1 Hr,[3],98%
same,Percent Antagonism at 1.5 Hr,[3],76%
same,Percent Antagonism at 2 Hr,[3],79%
same,Percent Antagonism at 3 Hr,[3],47%
same,Percent Antagonism at 4 Hr,[3],30%
same,Percent Antagonism at 6 Hr,[3],4%
same,Percent Antagonism at 8 Hr,[3],4%
same,"duration of antagonism of OMZ-induced analgesia, SC","[3]; SC, naltrexone 1.33 μmol/kg, OMZ 19 μmol/kg SC",up to 1 hr
same,effect on feeding,"[4]; S.C., 1, 3 and 24 hr, lower dose experiment (FIGS. 22, 23)",14.66 and 29.33 μmol/kg doses of naltrexone inhibited feeding at 3 hr following treatment
same,effect on feeding,"[4]; S.C., higher dose time course experiment, 0-6 hr","at all doses decreased feeling up to 4 hr after administration, and the two lower doses also decreased feeding at 6 hr post treatment"
same,Food Intake in Grams,[4]; S.C. 1.47 μmol/kg,33.0 ± 0.7 Grams
same,Food Intake in Grams,[4]; S.C. 2.93 μmol/kg,33.2 ± 3.0 Grams
same,Food Intake in Grams,[4]; S.C. 14.66 μmol/kg,37.6 ± 4.2 Grams
same,Food Intake in Grams,[4]; S.C. 29.33 μmol/kg,40.7 ± 8.2 Grams
same,Cumulative Food Intake in Grams,"[4]; S.C. 14.66 μmol/kg, 0-1 Hr",3.6 ± 0.5 Grams
same,Cumulative Food Intake in Grams,"[4]; S.C. 14.66 μmol/kg, 0-2 Hr",3.6 ± 0.5 Grams
same,Cumulative Food Intake in Grams,"[4]; S.C. 14.66 μmol/kg, 0-4 Hr",4.0 ± 0.0 Grams
same,Cumulative Food Intake in Grams,"[4]; S.C. 14.66 μmol/kg, 0-6 Hr",5.2 ± 0.6 Grams
same,Cumulative Food Intake in Grams,"[4]; S.C. 29.33 μmol/kg, 0-1 Hr",3.2 ± 0.6 Grams
same,Cumulative Food Intake in Grams,"[4]; S.C. 29.33 μmol/kg, 0-2 Hr",3.2 ± 0.6 Grams
same,Cumulative Food Intake in Grams,"[4]; S.C. 29.33 μmol/kg, 0-4 Hr",4.4 ± 0.5 Grams
same,Cumulative Food Intake in Grams,"[4]; S.C. 29.33 μmol/kg, 0-6 Hr",5.2 ± 0.9 Grams
same,Cumulative Food Intake in Grams,"[4]; S.C. 58.65 μmol/kg, 0-1 Hr",2.8 ± 1.1 Grams
same,Cumulative Food Intake in Grams,"[4]; S.C. 58.65 μmol/kg, 0-2 Hr",2.8 ± 1.1 Grams
same,Cumulative Food Intake in Grams,"[4]; S.C. 58.65 μmol/kg, 0-4 Hr",3.2 ± 0.9 Grams
same,Cumulative Food Intake in Grams,"[4]; S.C. 58.65 μmol/kg, 0-6 Hr",6.4 ± 0.5 Grams
same,Cumulative Food Intake in Grams,"[4]; S.C. 117.30 μmol/kg, 0-1 Hr",3.6 ± 0.8 Grams
same,Cumulative Food Intake in Grams,"[4]; S.C. 117.30 μmol/kg, 0-2 Hr",3.6 ± 0.8 Grams
same,Cumulative Food Intake in Grams,"[4]; S.C. 117.30 μmol/kg, 0-4 Hr",4.8 ± 0.9 Grams
same,Cumulative Food Intake in Grams,"[4]; S.C. 117.30 μmol/kg, 0-6 Hr",7.6 ± 1.3 Grams
same,food intake in 4-6 hr interval,"[4]; food intake/2 hr interval, FIGS. 26 and 27",rats treated with the two highest doses of naltrexone are beginning to resume feeding; also recorded: an increase in food consumption at some doses compared to controls
same,effect on water intake,"[5]; 1 and 3 hr, lower dose experiment (FIGS. 24, 25)",inhibited drinking at all doses tested at the 1 and 3 hr time points
same,effect on water intake,"[5]; 1 and 3 hr, lower dose experiment (FIGS. 24, 25), listed as naltrexone",effectively inhibited drinking at all doses tested during the first three hours after administration
same,effect on water intake,"[5]; higher dose time course experiment, 0-6 hr","significant effects at 0-1 hr, 0-2 hr and 0-4 hr"
same,Water Intake,[5]; S.C. 1.47 μmol/kg,69.0 ± 3.5 mL
same,Water Intake,[5]; S.C. 2.93 μmol/kg,62.4 ± 3.8 mL
same,Water Intake,[5]; S.C. 14.66 μmol/kg,53.4 ± 5.5 mL
same,Water Intake,[5]; S.C. 29.33 μmol/kg,66.0 ± 2.8 mL
same,Cumulative Water Intake,"[5]; S.C. 14.66 μmol/kg, 0-1 Hr",5.2 ± 1.1 mL
same,Cumulative Water Intake,"[5]; S.C. 14.66 μmol/kg, 0-2 Hr",9.2 ± 1.1 mL
same,Cumulative Water Intake,"[5]; S.C. 14.66 μmol/kg, 0-4 Hr",15.2 ± 2.0 mL
same,Cumulative Water Intake,"[5]; S.C. 14.66 μmol/kg, 0-6 Hr",22.8 ± 2.1 mL
same,Cumulative Water Intake,"[5]; S.C. 29.33 μmol/kg, 0-1 Hr",5.2 ± 0.6 mL
same,Cumulative Water Intake,"[5]; S.C. 29.33 μmol/kg, 0-2 Hr",8.4 ± 0.5 mL
same,Cumulative Water Intake,"[5]; S.C. 29.33 μmol/kg, 0-4 Hr",15.2 ± 1.1 mL
same,Cumulative Water Intake,"[5]; S.C. 29.33 μmol/kg, 0-6 Hr",21.6 ± 3.1 mL
same,Cumulative Water Intake,"[5]; S.C. 58.65 μmol/kg, 0-1 Hr",3.6 ± 0.8 mL
same,Cumulative Water Intake,"[5]; S.C. 58.65 μmol/kg, 0-2 Hr",6.8 ± 0.6 mL
same,Cumulative Water Intake,"[5]; S.C. 58.65 μmol/kg, 0-4 Hr",13.2 ± 1.3 mL
same,Cumulative Water Intake,"[5]; S.C. 58.65 μmol/kg, 0-6 Hr",22.4 ± 2.6 mL
same,Cumulative Water Intake,"[5]; S.C. 117.30 μmol/kg, 0-1 Hr",3.6 ± 0.8 mL
same,Cumulative Water Intake,"[5]; S.C. 117.30 μmol/kg, 0-2 Hr",9.2 ± 0.9 mL
same,Cumulative Water Intake,"[5]; S.C. 117.30 μmol/kg, 0-4 Hr",16.0 ± 1.6 mL
same,Cumulative Water Intake,"[5]; S.C. 117.30 μmol/kg, 0-6 Hr",26.8 ± 3.4 mL
